From US20100092459A1, “Protein Complex and Uses” (IMPERIAL INNOVATIONS LIMITED, priority 2006, published 2010)

What was measured:
[1] = test system: FGF-2-mediated ERK phosphorylation in H510 cells; assay: FGF-2-induced ERK phosphorylation in H510 cells, Western blot for biphospho-ERK; assay type: cell-based; settings: for inhibition of FGF-2-mediated ERK phosphorylation: dose range of inhibitor 1 h, then FGF-2 0.1 ng/ml 5 min
Description: (B) Representative blots from (A) were quantified by optical densitometry normalised for actin. (C) H69 cells transfected with empty (V) or a wt-PKCε-GFP expressing vector (a) were analysed for phospho-ERK, XIAP and Bcl-XL levels. (D) Baseline level cell death in V-H69 and ε-H69 cells growing in 10% FCS was determined by flow cytometry using Annexin V staining. (E) ε-H69 and V-H69 cells in SFM were treated with or without 0.1 μM etoposide (VP-16) and cell numbers determined 96 h later. Conditions were performed in quadruplicates and the average cell number±SEM represented as fold over untreated. (F) H510 cells in SFM were treated with or without 40 μM ε-TITAT, ΕTI-TITAT or TITAT for 4 h prior to stimulation for 5 min with or without FGF-2 (0.1 ng/ml). Cell lysates were Western-blotted for biphospho-ERK. […] (G) H510 cells transfected with PKCε or scrambled (sc) siRNA were stimulated with or without FGF-2. Lysates were analysed for PKCε levels and Erk phosphorylation. (A, C, F and G) Lamin B and actin immunodetection were used as loading controls.
(A) H510 cells were treated with or without a dose range of GF109203X (GF), Gö6976 (Go), Hispidin (His), BAPTA (BA) or Rottlerin (Rot) for 1 h prior to stimulation for 5 min in the presence or absence of either FGF-2 (0.1 ng/ml) or PDBu (400 nM). Cell lysates were analysed by SDS-PAGE/Western-blotting for biphospho-ERK. Lamin immunodetection was used as loading control. (B-top panel) Equal protein amounts from SCLC cell lines were compared for their PKC expression pattern. (B-bottom panel) SCLC cells in SFM were stimulated with and without FGF-2 for 5 min and cell lysates analysed by SDS-PAGE/WB for Erk phosphorylation. PKCε and PKCα levels (ODs from left panel) were compared to the ability to phosphorylate Erk in these SCLC cell lines. Results shown are representative of at least three independent experiments.
The PKCε translocation inhibitor ([…]) and PKCα translocation inhibitor ([…]) (Souroujon and Mochly-Rosen, 1998; Yedovitzky et al., 1997) were made cell-permeable by linkage to the HIV-derived TITAT sequence ([…]). H510 cells in RPMI were incubated for 4 h with 40 μM of either translocation inhibitor peptides or TITAT prior to further treatments. The activity of these inhibitors on ERK phosphorylation was assessed by Western Blotting.

Bcl-XL and XIAP = Bcl-XL and XIAP expression in HEK293Tet cells, Western blot; assay type: cell-based
Description: (§1) HEK 293-Tet clones transfected with an inducible vector for kinase active S6K1 (1KA), S6K2 (2KA) or empty vector were treated with tetracycline for 6 h prior to (A) Western-blotting (WB) as indicated or (B) S6K1 or 2 kinase assay using an S6 peptide as substrate. (C) V-, 1KA- and 2KA-293 cells were incubated in the absence of tetracycline with (white bars) or without (hatched bars) serum for 18 h or with tetracycline in the absence of serum (black bars) and the proportion of apoptotic cells determined using annexin V staining. (D) Cell lysates from 2KA and 1KA-293 cells treated with or without tetracycline, FGF-2 and PD098059 were analysed for Bcl-XL expression and S6 phosphorylation. (E) HEK 293 cells incubated with or without FGF-2 (4h) prior to serum deprivation (18 h) were analysed by annexin V staining. (A, D, F) Actin and lamin B immunodetections were used as a loading control. (B, C, E) Results represent the average of triplicates±SEM. (A-E) Results are representative of at least three independent experiments.
(A and B) HEK293 expressing tetracycline-inducible kinase-active S6K1 (1KA) or 2 (2KA) were treated with or without tetracycline for 6 h (B) or the time indicated (A). (A) Cells were grown in the absence of FCS and a cell death time-course performed. Cell death was assessed microscopically by determining Trypan blue positivity. Results shown are averages±SEM of triplicates. (C) HEK293 cells were treated for 1 h with or without 25 μM PD098059 prior to stimulation with FGF-2 for 4 h. (B and C) Cell lysates were analysed by SDS-PAGE/WB for the levels of Bcl-XL and XIAP. Actin was used as a loading control. Results shown are representative of at least three independent experiments.

HEK293Tet cells = assay: Survival of HEK293Tet cells after serum deprivation (annexin V); assay type: cell-based; settings: FGF-2 4 h before serum deprivation 18 h
Description: as §1
SCLC cells (5×10^4 cells/ml SFM) were pre-treated with or without 0.1 ng/ml FGF-2 for 4 h prior to treatment with 0.1 μM etoposide and incubated at 37° C. for 96 h. […] The proportion of cell death was either determined by trypan blue exclusion or by Annexin V staining and flow cytometry as previously described (Pardo et al., 2002).

S6K2 [2] = assay: S6K2 immune complex kinase assay (S6-peptide substrate), ε-H69 cells; assay type: cell-based; settings: ε-H69 cells (PKCε over-expressing), 40 μM peptide 4 h
Description: (§2) Cell lysates were subjected to immunoprecipitation with a PKCε antibody prior to Western blotting (WB) for the molecules indicated. (A-lower panel) Total cell lysate was Western-blotted as indicated. (B and E) […] was immunoprecipitated from V-H69 and ε-H69 (B) or […] cells (E) following 4 h treatment with or without ε[…] and TITAT. Immunoprecipitates were subjected to in-vitro kinase assays with S6-peptide as a substrate and the results shown are average cpm±SEM from triplicates of a representative experiment. (C) The phosphorylation of the endogenous V-H69 and -H69 cells in SFM were washed three times in RPMI 1640, and 2×10^6 cell aliquots were incubated in this medium for 30 min at 37° C. Cells were treated in the presence or absence of 40 μM ([…] or TITAT peptide for 4 h as indicated, prior to performing an immune complex kinase assay for S6K1 or […] as described (Pardo et al., 2001). In separate experiments, HEK293Tet cells expressing tetracycline-inducible kinase active cytoplasmic forms of S6K1 or […] were incubated with or without tetracycline prior to lysis and immune complex kinase assay.

S6K2 [3] = assay: S6K2 immune complex kinase assay, FGF-2-stimulated H510 cells; assay type: cell-based; settings: peptide 4 h
Description: as §2

S6K2 (human) = S6K2 (human) (UniProt Q9UBS0)
S6 protein = assay: Phosphorylation of endogenous S6 protein in ε-H69 cells (phospho-S6 antibody); assay type: cell-based; settings: ε-H69 cells in SFM
Description: S6 protein from V-H69 and ε-H69 cells in SFM treated with or without εTI-TITAT was determined using a phospho-S6 antibody. (D and F) PKCε KO MEFs re-expressing (KO+ε) or not (KO) […] were (D) grown in 10% FCS and analysed for phospho-S6 levels or (F) stimulated with or without FGF-2 and FCS prior to S6K2 immunoprecipitation and Western blotted as indicated. (C and D) Lamin B and actin immunodetection were used as a loading control. (A-F) Results shown are representative of at least 3 independent experiments.

[4] = 40 μM peptide 4 h, FGF-2 0.1 ng/ml 5 min

In the case of `O=C(O)CN(CC(=O)O)c1ccccc1OCCOc1ccccc1N(CC(=O)O)CC(=O)O` [BAPTA], the “inhibition of FGF-2-mediated ERK phosphorylation” value [1] is reported as “Only GF109203X and Rottlerin inhibited”.
In the case of `CN(C)CCCn1cc(C2=C(c3c[nH]c4ccccc34)C(=O)NC2=O)c2ccccc21` [GF109203X], the “inhibition of FGF-2-mediated ERK phosphorylation” value [1] is reported as “inhibited”.
For `Cn1c2ccccc2c2c3c(c4c5ccccc5n(CCC#N)c4c21)CNC3=O` [Gö6976], the “inhibition of FGF-2-mediated ERK phosphorylation” value [1] was “Only GF109203X and Rottlerin inhibited”.
With `O=c1cc(O)cc(/C=C/c2ccc(O)c(O)c2)o1` [Hispidin] the “inhibition of FGF-2-mediated ERK phosphorylation” value [1] was “Only GF109203X and Rottlerin inhibited”.
With `COc1cccc(-c2cc(=O)c3ccccc3o2)c1N` [PD098059] the “block of FGF-2-induced Bcl-XL and XIAP expression” value (Bcl-XL and XIAP; HEK293 cells, 25 μM PD098059 1 h before FGF-2 4 h) was “could be blocked” and the “suppression of increased Bcl-XL and XIAP expression” value (Bcl-XL and XIAP; KA-S6K2 HEK293Tet cells, tetracycline induced) was “could not be suppressed”.
In the case of `CC(=O)c1c(O)c(C)c(O)c(Cc2c(O)c3c(c(C(=O)/C=C/c4ccccc4)c2O)OC(C)(C)C=C3)c1O` [Rottlerin], the “inhibition of FGF-2-mediated ERK phosphorylation” value [1] is reported as “inhibited”.
With “FGF-2: fibroblast growth factor-2, purchased from Calbiochem” the “Bcl-XL and XIAP expression” value (Bcl-XL and XIAP; HEK293Tet cells stimulated with FGF-2) was “increased” and the survival (HEK293Tet cells) was “increased survival”.
TITAT (GRKKRRQRRRPPQ) was tested, and the “inhibition of ERK phosphorylation in response to FGF-2 (in words)” value [1, 4] was “neither αTI-TITAT nor TITAT inhibited”, the “effect on basal S6K2 activity” value (S6K2 [2]) was “no effect” and the “inhibition of FGF-2-induced S6K2 activation” value (S6K2 [3]) was “but not by αTI-TITAT or TITAT”.
With wt-PKCε-GFP (enzyme) the basal S6K2 activity (immune complex kinase assay with S6-peptide) (S6K2 (human)) was 2 fold.
αTI-TITAT (SLNPEWNETGRKKRRQRRRPPQ) was tested, and the “inhibition of ERK phosphorylation in response to FGF-2 (in words)” value [1, 4] was “neither αTI-TITAT nor TITAT inhibited”, the “effect on basal S6K2 activity” value (S6K2 [2]) was “no effect” and the “inhibition of FGF-2-induced S6K2 activation” value (S6K2 [3]) was “but not by αTI-TITAT or TITAT”.
In the case of εTI-TITAT (EAVSLKPTGRKKRRQRRRPPQ), the “inhibition of ERK phosphorylation in response to FGF-2” value [1, 4] is reported as 60%, the “effect on basal S6K2 activity” value (S6K2 [2]) is reported as “lowered S6K2 activity in ε-H69 cells to a level comparable to that found in V-H69 cells” and the “inhibition of FGF-2-induced S6K2 activation” value (S6K2 [3]) is reported as “inhibited”. The “effect on increased S6 phosphorylation” value (S6 protein) was “prevented”.
